Assay results: US8933230B2, “Phosphorus-containing group-substituted quinoline, its preparation process, medical composition containing the compounds and application” (priority 2011, dated 2015)

Key:
PDGFR-β = target: T1, PDGFR-β (Mus musculus, UniProt P05622); test: PDGFR-β kinase phosphorylation in NIH3T3 cells (sandwich ELISA); format: cell-based; settings: PDGF-BB 100 ng/mL 3 min, mean value of two testing results, read-out: IC50 values in the cell, PDGFR-β
T1 construct: cell line NIH3T3 having endogenous high expression wild type PDGFR-β; endogenous in cells; host or cells: NIH3T3
Procedure: (§1) Inhibitory activity on the kinases in tumor cells: In this example, the compound prepared in Example 10, N1-[4-[[7-[[1-(diethoxyphosphorylmethyl)-4-piperidinyl]methoxyl]-6-methoxyl-4-quinolyl]oxyl]-3-fluorophenyl]-N1′-(4-fluorophenyl)cyclopropane-1,1-dicarboxamide is tested in tumor cells by ProQinase GmbH corporation (Breisacher Str. 117, D-79106 Freiburg, Germany. www.proqinase.com) for the inhibitory activity on the following kinases: c-KIT, c-MET, VEGFR2 and PDGFR-β. The test includes the following steps:
(§2) Firstly, the compound according to present invention is dissolved in dimethyl sulfoxide (DMSO) to prepare a 10 mM stock solution, which is diluted serially according to the concentration range shown in Table 6:
PDGFR-β kinase: in the test experiment of PDGFR-beta kinase phosphorylation in the cells, mouse embryo fibroblast cell line NIH3T3 having endogenous high expression wild type PDGFR-β (wild-type PDGFR-β) is used. When these cells are simulated with mouse platelet-derived growth factor BB (PDGF-BB), it causes the tyrosine of PDGFR-beta receptor kinases self-phosphorylated. NIH3T3 cells are inoculated in DMEM culture solution containing 10% FCS in a multi-well cell culture dish. The compound of the invention is added to the cells after serum overnight starvation, then the cells are cultured in a medium without serum. […]

c-KIT = target: T2, c-KIT (Homo sapiens, UniProt P10721); test: c-KIT kinase phosphorylation in M07e cells (sandwich ELISA); format: cell-based; settings: SCF 100 ng/mL 3 min, mean value of two testing results, read-out: IC50 values in the cell, c-KIT
T2 construct: cell line M07e having endogenous high expression wild type c-KIT; endogenous in cells; host or cells: M07e
Procedure: as §1, §2
c-KIT kinase: in the test experiment of KIT kinase phosphorylation in the cells, human acute megakaryocytic leukemia cell line M07e having endogenous high expression wild type c-KIT is used. When these cells are stimulated with human stem cell factor (SCF), the tyrosine of KIT receptor kinases is self-phosphorylated. M07e cells are inoculated in RPMI containing 20% fetal calf serum (FCS) and 10 ng/ml GM-CSF in a multi-well cell culture dish. The compound of the invention is added to the cells after overnight starvation of serum and growth factor, then the cells are cultured in a medium without serum. […]

c-MET = target: T3, c-MET (Homo sapiens, UniProt P08581); test: c-MET kinase phosphorylation in MKN45 cells (sandwich ELISA); format: cell-based; settings: without stimulation, mean value of two testing results, read-out: IC50 values in the cell, c-MET
T3 construct: cell line MKN45 having endogenous high expression wild type c-MET; endogenous in cells; host or cells: MKN45
Procedure: as §1, §2
c-MET kinase: in the test experiment of c-MET kinase phosphorylation in the cells, human gastric cancer cell line MKN45 having endogenous high expression wild type c-MET (wild-type c-MET) is used. Such high expression of c-MET causes the tyrosine of c-MET receptor kinases constantly self-phosphorylated without ligands. MKN45 cells are inoculated in DMEM culture solution containing 10% FCS in a multi-well cell culture dish. The compound of the invention is added to the cells after serum overnight starvation, then the cells are cultured in a medium without serum. […]

PFCDPK1 (P. falciparum) = target: T4, PFCDPK1 (P. falciparum) (Plasmodium falciparum, UniProt P62344); test: KinomeScan kinase panel; format: binding
T4 construct: purchased DiscoveRx Corporation (KinomeScan)
T4 sequence (P62344 whole entry): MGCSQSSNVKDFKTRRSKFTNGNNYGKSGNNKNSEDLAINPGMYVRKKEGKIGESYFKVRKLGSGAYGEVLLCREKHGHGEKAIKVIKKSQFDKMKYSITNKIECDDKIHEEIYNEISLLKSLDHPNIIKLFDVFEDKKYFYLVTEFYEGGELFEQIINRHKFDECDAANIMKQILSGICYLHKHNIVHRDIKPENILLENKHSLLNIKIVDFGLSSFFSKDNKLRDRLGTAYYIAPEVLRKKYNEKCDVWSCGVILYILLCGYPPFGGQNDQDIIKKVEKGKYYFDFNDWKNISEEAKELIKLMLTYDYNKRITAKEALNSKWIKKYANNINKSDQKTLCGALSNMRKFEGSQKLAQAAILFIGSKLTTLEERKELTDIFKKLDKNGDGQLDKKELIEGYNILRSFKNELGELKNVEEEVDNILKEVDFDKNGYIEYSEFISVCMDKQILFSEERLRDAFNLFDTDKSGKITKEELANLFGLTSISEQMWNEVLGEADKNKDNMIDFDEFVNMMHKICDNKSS

T3 sequence (P08581 25-1390): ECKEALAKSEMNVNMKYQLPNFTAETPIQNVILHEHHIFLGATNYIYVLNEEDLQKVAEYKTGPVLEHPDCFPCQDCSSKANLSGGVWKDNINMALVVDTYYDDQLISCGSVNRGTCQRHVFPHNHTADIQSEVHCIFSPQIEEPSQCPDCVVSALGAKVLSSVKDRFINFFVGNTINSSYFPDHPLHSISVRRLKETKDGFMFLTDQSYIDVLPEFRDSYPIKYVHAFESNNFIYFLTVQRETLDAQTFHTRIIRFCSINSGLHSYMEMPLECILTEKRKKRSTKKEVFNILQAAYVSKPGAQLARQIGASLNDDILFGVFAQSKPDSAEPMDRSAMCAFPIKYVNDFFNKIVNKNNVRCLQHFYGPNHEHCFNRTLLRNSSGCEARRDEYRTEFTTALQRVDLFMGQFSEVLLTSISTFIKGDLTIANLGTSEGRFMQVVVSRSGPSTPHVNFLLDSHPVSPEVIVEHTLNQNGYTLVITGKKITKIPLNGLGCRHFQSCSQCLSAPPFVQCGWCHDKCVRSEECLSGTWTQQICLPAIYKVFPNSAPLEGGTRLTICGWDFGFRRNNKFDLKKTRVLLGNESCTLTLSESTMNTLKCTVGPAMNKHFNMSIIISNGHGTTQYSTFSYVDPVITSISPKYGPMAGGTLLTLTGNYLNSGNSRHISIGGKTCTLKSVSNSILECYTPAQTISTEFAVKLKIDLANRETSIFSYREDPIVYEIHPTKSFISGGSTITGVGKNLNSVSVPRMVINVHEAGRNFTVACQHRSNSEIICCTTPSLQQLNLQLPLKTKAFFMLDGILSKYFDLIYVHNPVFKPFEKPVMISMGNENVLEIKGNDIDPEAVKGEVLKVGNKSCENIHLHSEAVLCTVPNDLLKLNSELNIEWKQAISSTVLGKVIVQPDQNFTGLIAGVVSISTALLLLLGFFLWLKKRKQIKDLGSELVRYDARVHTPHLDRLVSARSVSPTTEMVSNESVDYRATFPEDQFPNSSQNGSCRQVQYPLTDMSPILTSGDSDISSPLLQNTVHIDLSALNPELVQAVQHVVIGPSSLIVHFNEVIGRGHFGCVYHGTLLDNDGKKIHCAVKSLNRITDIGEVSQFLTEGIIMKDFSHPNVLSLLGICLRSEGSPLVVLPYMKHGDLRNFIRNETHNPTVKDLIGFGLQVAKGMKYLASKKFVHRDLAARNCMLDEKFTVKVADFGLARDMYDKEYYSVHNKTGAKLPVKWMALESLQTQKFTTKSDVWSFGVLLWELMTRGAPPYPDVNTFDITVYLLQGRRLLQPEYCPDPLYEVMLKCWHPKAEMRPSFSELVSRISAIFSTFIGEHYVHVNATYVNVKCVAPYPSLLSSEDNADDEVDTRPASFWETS
T1 sequence (P05622 32-1098): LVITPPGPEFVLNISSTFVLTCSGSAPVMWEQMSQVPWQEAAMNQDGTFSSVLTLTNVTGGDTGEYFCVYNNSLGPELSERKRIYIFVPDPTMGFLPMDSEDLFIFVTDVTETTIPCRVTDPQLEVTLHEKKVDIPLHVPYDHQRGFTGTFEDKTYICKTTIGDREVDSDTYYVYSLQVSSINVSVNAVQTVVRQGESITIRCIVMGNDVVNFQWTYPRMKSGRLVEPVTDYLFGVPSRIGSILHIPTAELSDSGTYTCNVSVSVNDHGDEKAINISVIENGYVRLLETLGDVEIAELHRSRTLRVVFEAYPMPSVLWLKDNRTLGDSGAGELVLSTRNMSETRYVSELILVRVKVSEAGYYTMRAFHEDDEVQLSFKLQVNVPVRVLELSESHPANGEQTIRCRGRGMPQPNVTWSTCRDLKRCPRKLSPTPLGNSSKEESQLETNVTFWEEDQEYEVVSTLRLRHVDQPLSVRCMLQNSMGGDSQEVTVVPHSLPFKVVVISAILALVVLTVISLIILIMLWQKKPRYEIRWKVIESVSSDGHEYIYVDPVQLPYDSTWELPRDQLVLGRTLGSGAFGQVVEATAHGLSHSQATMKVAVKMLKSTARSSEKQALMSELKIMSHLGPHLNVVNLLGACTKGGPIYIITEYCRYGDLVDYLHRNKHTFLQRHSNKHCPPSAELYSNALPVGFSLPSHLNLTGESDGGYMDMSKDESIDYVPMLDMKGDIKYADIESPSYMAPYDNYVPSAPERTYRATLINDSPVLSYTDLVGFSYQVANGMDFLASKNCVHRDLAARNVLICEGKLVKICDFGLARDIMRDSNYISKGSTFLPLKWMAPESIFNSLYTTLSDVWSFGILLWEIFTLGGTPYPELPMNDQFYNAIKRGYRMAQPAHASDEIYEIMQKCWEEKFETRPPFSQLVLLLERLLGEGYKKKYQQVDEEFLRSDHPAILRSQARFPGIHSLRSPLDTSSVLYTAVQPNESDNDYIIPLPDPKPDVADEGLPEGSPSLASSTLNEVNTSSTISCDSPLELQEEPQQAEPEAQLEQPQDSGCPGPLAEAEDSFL
T2 sequence (P10721 26-976): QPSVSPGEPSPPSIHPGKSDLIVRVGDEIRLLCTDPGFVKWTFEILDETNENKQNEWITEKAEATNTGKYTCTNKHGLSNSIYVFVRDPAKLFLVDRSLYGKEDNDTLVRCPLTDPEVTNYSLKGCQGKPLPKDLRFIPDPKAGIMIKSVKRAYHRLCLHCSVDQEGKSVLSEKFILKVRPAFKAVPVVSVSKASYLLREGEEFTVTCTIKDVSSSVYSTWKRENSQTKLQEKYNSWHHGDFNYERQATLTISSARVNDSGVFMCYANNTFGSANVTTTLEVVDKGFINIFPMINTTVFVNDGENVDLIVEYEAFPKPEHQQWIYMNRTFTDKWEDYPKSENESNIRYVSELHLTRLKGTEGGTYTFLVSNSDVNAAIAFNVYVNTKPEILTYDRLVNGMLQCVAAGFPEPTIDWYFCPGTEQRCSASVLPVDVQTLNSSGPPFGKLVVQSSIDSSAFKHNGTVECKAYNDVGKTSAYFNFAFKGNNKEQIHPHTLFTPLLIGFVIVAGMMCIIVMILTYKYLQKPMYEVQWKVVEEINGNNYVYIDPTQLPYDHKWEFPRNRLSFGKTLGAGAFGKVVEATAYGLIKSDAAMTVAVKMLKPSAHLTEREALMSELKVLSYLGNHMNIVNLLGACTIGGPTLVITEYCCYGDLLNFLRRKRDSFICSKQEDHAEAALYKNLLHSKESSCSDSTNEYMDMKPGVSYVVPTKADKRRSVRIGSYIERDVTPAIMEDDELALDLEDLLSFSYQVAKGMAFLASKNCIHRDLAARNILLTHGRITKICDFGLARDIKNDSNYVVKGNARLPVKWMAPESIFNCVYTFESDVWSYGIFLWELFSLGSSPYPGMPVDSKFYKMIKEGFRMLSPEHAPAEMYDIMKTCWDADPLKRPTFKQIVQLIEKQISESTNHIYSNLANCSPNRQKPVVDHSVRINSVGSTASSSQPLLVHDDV

CCOP(=O)(CN1CCC(COc2cc3nccc(Oc4ccc(NC(=O)C5(C(=O)Nc6ccc(F)cc6)CC5)cc4F)c3cc2OC)CC1)OCC [Example 10, N1-[4-[[7-[[1-(diethoxyphosphorylmethyl)-4-piperidinyl]methoxyl]-6-methoxyl-4-quinolyl]oxyl]-3-fluorophenyl]-N1′-(4-fluorophenyl)cyclopropane-1,1-dicarboxamide]
IC50 (PDGFR-β): 13 nM
IC50 (c-KIT): 27 nM
IC50 (c-MET): 17 nM
% Ctrl@1000 nM (PFCDPK1 (P. falciparum)): 84 % Ctrl
